pEC50: −log10 of the molar value. Read-outs that look alike come from different tables or passages of the source.
Biological target: T1, human mGluR2 receptor (Homo sapiens, UniProt Q14416)
T1 construct: expressed in transfected cells
Experiment: [35S]-GTPγS binding assay of mGluR2 receptor activation
Format: biochemical
Procedure: A [^35S]-GTPγS binding assay was used to functionally assay mGluR2 receptor activation. The allosteric activator activity of compounds at the human mGluR2 receptor were measured using a [^35S]-GTPγS binding assay with membranes prepared from CHO cells which stably express the human mGluR2. The assay is based upon the principle that agonists bind to G-protein coupled receptors to stimulate GDP-GTP exchange at the G-protein. Since [^35S]-GTPγS is a non-hydrolyzable GTP analog, it can be used to provide an index of GDP-GTP exchange and, thus, receptor activation. The GTPγS binding assay therefore provides a quantitative measure of receptor activation.
Membranes were prepared from CHO cells stably transfected with human mGluR2. Membranes (30 μg protein) were incubated with test compound (3 nM to 300 μM) for 15 minutes at room temperature prior to the addition of 1 μM glutamate, and incubated for 30 min at 30° C. in 500 μl assay buffer (20 mM HEPES, 100 mM NaCl, 10 mM MgCl2), containing 30 μM GDP and 0.1 nM [^35S]-GTPγS (1250 Ci/mmol). Reactions were carried out in triplicate in 2 ml polypropylene 96-well plates. Reactions were terminated by vacuum filtration using a Packard 96-well harvester and Unifilter-96, GF/B filter microplates. The filter plates were washed 4×1.5 ml with ice-cold wash buffer (10 mM sodium phosphate buffer, pH 7.4). The filter plates were dried and 35 μl of scintillation fluid (Microscint 20) was added to each well. The amount of radioactivity bound was determined by counting plates on the Packard TopCount. Data was analyzed using GraphPad Prism, and EC50 and Emax values (relative to the maximum glutamate effect) were calculated using non-linear regression.

[1] = membranes from CHO cells stably expressing human mGluR2, 1 μM glutamate

T1 sequence (Q14416 19-872): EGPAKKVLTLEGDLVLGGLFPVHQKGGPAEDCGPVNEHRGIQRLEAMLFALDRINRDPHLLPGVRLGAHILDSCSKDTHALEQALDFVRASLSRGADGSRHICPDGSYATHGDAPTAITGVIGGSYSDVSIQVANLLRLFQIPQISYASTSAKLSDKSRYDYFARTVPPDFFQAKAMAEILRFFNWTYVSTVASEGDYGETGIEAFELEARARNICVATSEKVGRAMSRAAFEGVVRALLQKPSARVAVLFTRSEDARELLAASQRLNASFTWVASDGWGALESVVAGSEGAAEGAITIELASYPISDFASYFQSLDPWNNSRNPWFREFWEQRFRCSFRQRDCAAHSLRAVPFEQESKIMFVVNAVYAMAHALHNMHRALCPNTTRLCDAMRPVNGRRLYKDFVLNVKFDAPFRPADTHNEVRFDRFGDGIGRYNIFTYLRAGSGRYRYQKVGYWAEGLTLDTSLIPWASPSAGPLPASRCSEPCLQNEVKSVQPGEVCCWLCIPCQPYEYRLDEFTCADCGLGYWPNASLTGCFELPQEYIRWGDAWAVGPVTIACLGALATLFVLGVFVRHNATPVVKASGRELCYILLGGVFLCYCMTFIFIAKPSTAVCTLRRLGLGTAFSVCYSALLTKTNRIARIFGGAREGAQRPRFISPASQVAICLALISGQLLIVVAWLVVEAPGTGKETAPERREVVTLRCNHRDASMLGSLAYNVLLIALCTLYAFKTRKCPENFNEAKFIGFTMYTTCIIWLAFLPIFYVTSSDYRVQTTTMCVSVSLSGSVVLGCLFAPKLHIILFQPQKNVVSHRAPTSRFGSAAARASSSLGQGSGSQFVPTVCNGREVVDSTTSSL

pEC50 [1] | pEC50 | SMILES
7.30 |  | Cc1cc(-c2cccnc2)cc2c1C(=O)N(Cc1ccc(Oc3ccccc3)cc1)C2 [Example 104, 7-Methyl-2-(4-phenoxy-benzyl)-5-pyridin-3-yl-2,3-dihydro-isoindol-1-one]
5.98 |  | Cc1cc(N2CCN(CC3CCCN(C)C3)CC2)cc2c1C(=O)N(Cc1ccc(OC(F)(F)F)cc1)C2 (stereo not drawn) [Example 139, 7-Methyl-5-[4-(1-methyl-piperidin-3-ylmethyl)-piperazin-1-yl]-2-(4-tri-fluoromethoxy-benzyl)-2,3-dihydro-isoindol-1-one]
5.91 |  | Cc1cc(N2CCN3CCCCC3C2)cc2c1C(=O)N(Cc1ccc(Cl)cc1)C2 (stereo not drawn) [Example 121]
5.39 |  | Cc1cc(N2CCN(Cc3ccncc3)CC2)cc2c1C(=O)N(Cc1ccc(N3CCN(Cc4ccncc4)CC3)cc1)C2 [Example 142, 7-Methyl-5-(4-pyridin-4-ylmethyl-piperazin-1-yl)-2-[4-(4-pyridin-4-ylmethyl-piperazin-1-yl)-benzyl]-2,3-dihydro-isoindol-1-one]
7.10 |  | COc1cc(C2=CCN(C(=O)OC(C)(C)C)CC2)cc2c1C(=O)N(Cc1ccc(OC(F)(F)F)cc1)C2 [Example 85, 4-[7-Methoxy-1-oxo-2-(4-trifluoromethoxy-benzyl)-2,3-dihydro-1H-isoindol-5-yl]-3,6-dihydro-2H-pyridine-1-carboxylic acid tert-butyl ester]
6.20 |  | Cc1cc(CNCCc2ccccc2)cc2c1C(=O)N(Cc1ccc(OC(F)(F)F)cc1)C2 [Example 46, 7-Methyl-5-(phenethylamino-methyl)-2-(4-trifluoromethoxy-benzyl)-2,3-dihydro-isoindol-1-one]
6.26 |  | Cc1cc(C(=O)N2CCN(Cc3ccncc3)CC2)cc2c1C(=O)N(Cc1ccc(OC(F)(F)F)cc1)C2 [Example 162, 7-Methyl-5-(4-pyridin-4-ylmethyl-piperazine-1-carbonyl)-2-(4-trifluoromethoxy-benzyl)-2,3-dihydro-isoindol-1-one]
6.17 |  | CCN1CCN(c2cc(C)c3c(c2)CN(Cc2ccc(OC(F)(F)F)cc2)C3=O)CC1 [Example 112, 5-(4-Ethylpiperazin-1-yl)-7-methyl-2-(4-trifluoromethoxy-benzyl)-2,3-dihydroisoindol-1-one]
6.55 |  | Cc1cc(N2CCN(C)CC2)cc2c1C(=O)N(Cc1ccc(Oc3ccccc3)cc1)C2 [Example 114, 7-Methyl-5-(4-methylpiperazin-1-yl)-2-(4-phenoxybenzyl)-2,3-dihydroisoindol-1-one]
5.74 |  | CCN(CC)C(=O)C1CCCN(Cc2cc(C)c3c(c2)CN(Cc2ccc(OC(F)(F)F)cc2)C3=O)C1 (stereo not drawn) [Example 50, 1-[7-Methyl-1-oxo-2-(4-trifluoromethoxy-benzyl)-2,3-dihydro-1H-isoindol-5-ylmethyl]-piperidine-3-carboxylic acid diethylamide]
6.85 |  | O=C1c2c(Cl)cc(Br)cc2CN1Cc1ccc(OC(F)(F)F)cc1 [Example 33, 5-Bromo-7-chloro-2-(4-trifluoromethoxy-benzyl)-2,3-dihydro-isoindol-1-one]
6.38 |  | Cc1cc(N2CCN(Cc3ccncc3)CC2)cc2c1C(=O)N(Cc1ccc(Cl)cc1)C2 [Example 143, 2-(4-Chloro-benzyl)-7-methyl-5-(4-pyridin-4-ylmethyl-piperazin-1-yl)-2,3-dihydro-isoindol-1-one]
6.32 |  | O=C1c2c(Cl)cc(N3CCN4CCCC4C3)cc2CN1Cc1ccc(OC(F)(F)F)cc1 (stereo not drawn) [Example 132, 7-Chloro-5-(hexahydro-pyrrolo[1,2-a]pyrazin-2-yl)-2-(4-trifluoromethoxy-benzyl)-2,3-dihydro-isoindol-1-one]
5.92 |  | Cc1cc(N2CCCN(C)CC2)cc2c1C(=O)N(Cc1ccc(OC(F)(F)F)cc1)C2 [Example 113, 7-Methyl-5-(4-methyl-[1,4]-diazepan-1-yl)-2-(4-trifluoromethoxy-benzyl)-2,3-dihydroisoindol-1-one]
 | 6.33 | CNCc1noc(-c2cc(C)c3c(c2)CN(Cc2ccc(OC(F)(F)F)cc2)C3=O)n1 [Example 179, 7-Methyl-5-(3-methylamino-methyl-[1,2,4]oxadiazol-5-yl)-2-(4-trifluorometh-oxy-benzyl)-2,3-dihydro-isoindol-1-one]
7.00 |  | Cc1cc(CN2CCC(CCCc3ccccc3)CC2)cc2c1C(=O)N(Cc1ccc(OC(F)(F)F)cc1)C2 [Example 54, 7-Methyl-5-[4-(3-phenylpropyl)-piperidin-1-ylmethyl]-2-(4-trifluoromethoxy-benzyl)-2,3-dihydroisoindol-1-one]
 | 6.96 | Cc1cc(-c2nc(CN3CCOCC3)no2)cc2c1C(=O)N(Cc1ccc(OC(F)(F)F)cc1)C2 [Example 178, 7-Methyl-5-(3-morpholin-4-ylmethyl-[1,2,4]oxadiazol-5-yl)-2-(4-trifluorometh-oxy-benzyl)-2,3-dihydro-isoindol-1-one]

pEC50 [1] | pEC50 | SMILES
6.23 |  | CN1CCN(c2cc(Cl)c3c(c2)CN(Cc2ccc(Cl)cc2)C3=O)CC1 [Example 133, 7-Chloro-2-(4-chlorobenzyl)-5-(4-methyl-piperazin-1-yl)-2,3-dihydroisoindol-1-one]
5.20 |  | CCNCc1cc(C)c2c(c1)CN(Cc1ccc(OC(F)(F)F)cc1)C2=O [Example 53, 5-Ethylamino-methyl-7-methyl-2-(4-trifluoromethoxy-benzyl)-2,3-dihydro-isoindol-1-one]
 | 6.85 | Cc1cc(CC2CCN(Cc3cccnc3)CC2)cc2c1C(=O)N(Cc1ccc(OC(F)(F)F)cc1)C2 [Example 169, 7-methyl-5-(1-pyridin-3-ylmethyl-piperidin-4-ylmethyl)-2-(4-trifluorometh-oxy-benzyl)-2,3-dihydro-isoindol-1-one]
6.04 |  | Cc1cc(CNCc2cccnc2)cc2c1C(=O)N(Cc1ccc(OC(F)(F)F)cc1)C2 [Example 41, 7-Methyl-5-{[(pyridine-3-ylmethyl)-amino]-methyl}-2-(4-trifluoromethoxy-benzyl)-2,3-dihydro-isoindol-1-one]
5.41 |  | Cc1cc(N2CCNCC2)cc2c1C(=O)N(Cc1ccc(OC(F)(F)F)cc1)C2 [Example 123, 7-Methyl-5-piperazin-1-yl-2-(4-trifluoromethoxy-benzyl)-2,3-dihydroisoindol-1-one]
5.69 |  | Cc1cc(C2CCNCC2)cc2c1C(=O)N(Cc1ccc(OC(F)(F)F)cc1)C2 [Example 158, 7-Methyl-5-piperidin-4-yl-2-(4-trifluoromethoxy-benzyl)-2,3-dihydro-isoindol-1-one]
6.33 |  | Cc1cc(CNCc2ccncc2)cc2c1C(=O)N(Cc1ccc(OC(F)(F)F)cc1)C2 [Example 42, 7-Methyl-5-{[(pyridine-4-ylmethyl)-amino]-methyl}-2-(4-trifluoromethoxy-benzyl)-2,3-dihydro-isoindol-1-one]
6.20 |  | Cc1cc(C(=O)N2CCN(Cc3ccccc3)CC2)cc2c1C(=O)N(Cc1ccc(OC(F)(F)F)cc1)C2 [Example 161, 5-(4-Benzyl-piperazine-1-carbonyl)-7-methyl-2-(4-trifluoromethoxy-benzyl)-2,3-dihydro-isoindol-1-one]
 | 5.19 | Cc1cc(-c2nnc(CN(C)C)o2)cc2c1C(=O)N(Cc1ccc(OC(F)(F)F)cc1)C2 [Example 175, 5-(5-Dimethylamino-methyl-[1,3,4]oxadiazol-2-yl)-7-methyl-2-(4-trifluorometh-oxy-benzyl)-2,3-dihydro-isoindol-1-one]
5.18 |  | COCCN1CCN(c2ccc3c(c2)CN(Cc2ccc(OC(F)(F)F)cc2)C3=O)CC1 [Example 147, 5-[4-(2-Methoxy-ethyl)-piperazin-1-yl]-2-(4-trifluoromethoxy-benzyl)-2,3-dihydro-isoindol-1-one]
7.00 |  | Cc1cc(N2CCC(N(C)C)C2)cc2c1C(=O)N(Cc1ccc(Oc3ccccc3)cc1)C2 (stereo not drawn) [Example 130, 5-(3-Dimethylamino-pyrrolidin-1-yl)-7-methyl-2-(4-phenoxy-benzyl)-2,3-dihydro-isoindol-1-one]
6.89 |  | Cc1cc(-c2ccncc2)cc2c1C(=O)N(Cc1ccc(OC(F)(F)F)cc1)C2 [Example 96, 7-Methyl-5-pyridin-4-yl-2-(trifluoromethoxybenzyl)-2,3-dihydroisoindol-1-one]
5.55 |  | COc1cc(Br)cc2c1C(=O)N(Cc1ccc(Cl)cc1)C2 [Example 32, 5-Bromo-2-(4-chloro-benzyl)-7-methoxy-2,3-dihydro-isoindol-1-one]
6.41 |  | Cc1cc(CNCc2ccccc2)cc2c1C(=O)N(Cc1ccc(OC(F)(F)F)cc1)C2 [Example 45, 5-(Benzylamino-methyl)-7-methyl-2-(4-trifluoromethoxy-benzyl)-2,3-dihydro-isoindol-1-one]
6.15 |  | Cc1cc(Br)cc2c1C(=O)N(Cc1ccc(Cl)cc1)C2 [Example 31, 5-Bromo-2-(4-chlorobenzyl)-7-methyl-2,3-dihydroisoindol-1-one]
5.56 |  | Cc1ccc(CN2Cc3cc(-c4cccnc4)ccc3C2=O)cc1 [Example 94, 2-(4-Methylbenzyl)-5-pyridin-3-yl-2,3-dihydroisondol-1-one]

Source: US7968570B2, “Isoindolone compounds and their use as metabotropic glutamate receptor potentiators” (AstraZeneca AB, priority 2004, dated 2011)
